Measurements from the NIST ThermoML archive (doi:10.1021/je0601457).

Experiment: xn = mol fraction of the nth substance listed
Settings: Liquid, linear displacement

COc1cnccn1 [methoxypyrazine] + O=C=O
Settings	mass density [kg/m3]
294.35 K, x1 = 0.107	802
294.55 K, x1 = 0.129	922
295.15 K, x1 = 0.069	809
295.15 K, x1 = 0.919	1033
295.25 K, x1 = 0.015	726
295.25 K, x1 = 0.039	780
295.75 K, x1 = 0.207	911
295.75 K, x1 = 0.379	929
296.35 K, x1 = 0.025	797
296.85 K, x1 = 0.232	981
297.15 K, x1 = 0.919	1109
298.15 K, x1 = 0.379	934
299.55 K, x1 = 0.015	749
299.95 K, x1 = 0.919	1063
303.35 K, x1 = 0.025	778
303.75 K, x1 = 0.015	718
304.35 K, x1 = 0.007	679
305.95 K, x1 = 0.919	1097
306.95 K, x1 = 0.207	945
307.15 K, x1 = 0.069	843
307.55 K, x1 = 0.129	920
307.95 K, x1 = 0.039	778
310.65 K, x1 = 0.107	860
311.95 K, x1 = 0.637	1122
312.55 K, x1 = 0.379	1012
313.55 K, x1 = 0.025	696
314.15 K, x1 = 0.232	987
317.85 K, x1 = 0.919	1085
326.85 K, x1 = 0.129	864
328.45 K, x1 = 0.207	906
330.65 K, x1 = 0.379	982
332.45 K, x1 = 0.232	948
332.65 K, x1 = 0.637	1097
332.65 K, x1 = 0.919	1063
332.85 K, x1 = 0.107	794
348.55 K, x1 = 0.207	866
348.65 K, x1 = 0.379	958
348.95 K, x1 = 0.919	1050
354.15 K, x1 = 0.232	902
354.35 K, x1 = 0.637	1070
366.45 K, x1 = 0.379	933
367.35 K, x1 = 0.637	1055
367.65 K, x1 = 0.207	824
368.95 K, x1 = 0.232	864
